According to ChEMBL document CHEMBL3217491, “Design, synthesis and biological evaluation of imidazopyridine/pyrimidine-chalcone derivatives as potential anticancer agents” (2010):

How the values were obtained:
Assay type in all cases: functional
[1] = tested on: PC-3; assay: Growth inhibition of human PC3 cells after 48 hrs by SRB assay; conditions: PC-3, 48 h
[2] = tested on: DU-145; assay: Growth inhibition of human DU145 cells after 48 hrs by SRB assay; conditions: DU-145, 48 h
[3] = tested on: MCF7; assay: Growth inhibition of human MCF7 cells after 48 hrs by SRB assay; conditions: MCF7, 48 h
[4] = tested on: MDA-MB-231; assay: Growth inhibition of human MDA-MB-231 cells after 48 hrs by SRB assay; conditions: MDA-MB-231, 48 h
[5] = Growth inhibition of human Hs578T cells after 48 hrs by SRB assay; conditions: Hs-578T
[6] = Growth inhibition of human BT549 cells after 48 hrs by SRB assay; conditions: BT-549, 48 h
[7] = tested on: T47D; assay: Growth inhibition of human T47D cells after 48 hrs by SRB assay
[8] = tested on: MDA-MB-468; assay: Growth inhibition of human MDA-MB-468 cells after 48 hrs by SRB assay; conditions: MDA-MB-468, 48 h
[9] = Growth inhibition of human LOXIMVI cells after 48 hrs by SRB assay; conditions: LOX IMVI
[10] = tested on: Malme-3M; assay: Growth inhibition of human MALME-3M cells after 48 hrs by SRB assay
[11] = tested on: M14; assay: Growth inhibition of human M14 cells after 48 hrs by SRB assay; conditions: M14, 48 h
[12] = tested on: MDA-MB-435; assay: Growth inhibition of human MDA-MB-435 cells after 48 hrs by SRB assay; conditions: MDA-MB-435, 48 h
[13] = tested on: SK-MEL-2; assay: Growth inhibition of human SK-MEL-2 cells after 48 hrs by SRB assay; conditions: SK-MEL-2, 48 h
[14] = tested on: SK-MEL-28; assay: Growth inhibition of human SK-MEL-28 cells after 48 hrs by SRB assay; conditions: SK-MEL-28, 48 h
[15] = tested on: SK-MEL-5; assay: Growth inhibition of human SK-MEL-5 cells after 48 hrs by SRB assay; conditions: SK-MEL-5, 48 h
[16] = Growth inhibition of human UACC62 cells after 48 hrs by SRB assay; conditions: UACC-62, 48 h
[17] = Growth inhibition of human UACC257 cells after 48 hrs by SRB assay; conditions: UACC-257, 48 h
[18] = tested on: CCRF-CEM; assay: Growth inhibition of human CCRF-CEM cells after 48 hrs by SRB assay
[19] = tested on: HL-60(TB); assay: Growth inhibition of human HL-60(TB) cells after 48 hrs by SRB assay; conditions: HL-60, 48 h
[20] = tested on: K562; assay: Growth inhibition of human K562 cells after 48 hrs by SRB assay; conditions: K562, 48 h
[21] = Growth inhibition of human MOLT4 cells after 48 hrs by SRB assay; conditions: MOLT-4, 48 h
[22] = tested on: SR; assay: Growth inhibition of human SR cells after 48 hrs by SRB assay
[23] = tested on: RPMI-8226; assay: Growth inhibition of human RPMI8226 cells after 48 hrs by SRB assay; conditions: RPMI-8226, 48 h
[24] = tested on: A549; assay: Growth inhibition of human A549 cells after 48 hrs by SRB assay; conditions: A549, 48 h
[25] = Growth inhibition of human EKVX cells after 48 hrs by SRB assay
[26] = tested on: HOP-62; assay: Growth inhibition of human HOP62 cells after 48 hrs by SRB assay; conditions: HOP-62, 48 h
[27] = tested on: NCI-H226; assay: Growth inhibition of human NCI-H226 cells after 48 hrs by SRB assay; conditions: NCI-H226, 48 h
[28] = tested on: NCI-H23; assay: Growth inhibition of human NCI-H23 cells after 48 hrs by SRB assay; conditions: NCI-H23, 48 h
[29] = tested on: NCI-H322M; assay: Growth inhibition of human NCI-H322M cells after 48 hrs by SRB assay
[30] = tested on: NCI-H460; assay: Growth inhibition of human NCI-H460 cells after 48 hrs by SRB assay; conditions: NCI-H460, 48 h
[31] = tested on: NCI-H522; assay: Growth inhibition of human NCI-H522 cells after 48 hrs by SRB assay; conditions: NCI-H522, 48 h
[32] = tested on: COLO 205; assay: Growth inhibition of human COLO205 cells after 48 hrs by SRB assay; conditions: COLO 205, 48 h
[33] = Growth inhibition of human HCC2998 cells after 48 hrs by SRB assay; conditions: HCC 2998, 48 h
[34] = tested on: HCT-116; assay: Growth inhibition of human HCT116 cells after 48 hrs by SRB assay; conditions: HCT-116, 48 h
[35] = Growth inhibition of human HCT15 cells after 48 hrs by SRB assay; conditions: HCT-15, 48 h
[36] = tested on: HT-29; assay: Growth inhibition of human HT-29 cells after 48 hrs by SRB assay; conditions: HT-29, 48 h
[37] = tested on: KM12; assay: Growth inhibition of human KM12 cells after 48 hrs by SRB assay; conditions: KM12, 48 h
[38] = tested on: SW-620; assay: Growth inhibition of human SW620 cells after 48 hrs by SRB assay; conditions: SW-620, 48 h
[39] = tested on: SF-268; assay: Growth inhibition of human SF268 cells after 48 hrs by SRB assay; conditions: SF-268, 48 h
[40] = Growth inhibition of human SF295 cells after 48 hrs by SRB assay; conditions: SF-295, 48 h
[41] = Growth inhibition of human SF539 cells after 48 hrs by SRB assay; conditions: SF-539, 48 h
[42] = tested on: SNB-19; assay: Growth inhibition of human SNB19 cells after 48 hrs by SRB assay; conditions: SNB-19, 48 h
[43] = tested on: SNB-75; assay: Growth inhibition of human SNB75 cells after 48 hrs by SRB assay; conditions: SNB-75, 48 h
[44] = tested on: U-251; assay: Growth inhibition of human U251 cells after 48 hrs by SRB assay; conditions: U-251, 48 h
[45] = tested on: IGROV-1; assay: Growth inhibition of human IGROV1 cells after 48 hrs by SRB assay; conditions: IGROV-1, 48 h
[46] = Growth inhibition of human OVCAR3 cells after 48 hrs by SRB assay; conditions: OVCAR-3, 48 h
[47] = Growth inhibition of human OVCAR4 cells after 48 hrs by SRB assay; conditions: OVCAR-4, 48 h
[48] = Growth inhibition of human OVCAR5 cells after 48 hrs by SRB assay; conditions: OVCAR-5, 48 h
[49] = Growth inhibition of human OVCAR8 cells after 48 hrs by SRB assay; conditions: OVCAR-8, 48 h
[50] = Growth inhibition of human NCI-ADR-RES cells after 48 hrs by SRB assay
[51] = tested on: SK-OV-3; assay: Growth inhibition of human SKOV3 cells after 48 hrs by SRB assay; conditions: SK-OV-3, 48 h
[52] = tested on: 786-0; assay: Growth inhibition of human 786-0 cells after 48 hrs by SRB assay; conditions: 786-0, 48 h
[53] = tested on: A498; assay: Growth inhibition of human A498 cells after 48 hrs by SRB assay; conditions: A498, 48 h
[54] = tested on: ACHN; assay: Growth inhibition of human ACHN cells after 48 hrs by SRB assay
[55] = tested on: CAKI-1; assay: Growth inhibition of human Caki1 cells after 48 hrs by SRB assay; conditions: CAKI-1, 48 h
[56] = tested on: SN12C; assay: Growth inhibition of human SN12C cells after 48 hrs by SRB assay
[57] = tested on: TK-10; assay: Growth inhibition of human TK10 cells after 48 hrs by SRB assay; conditions: TK-10, 48 h
[58] = Growth inhibition of human UO31 cells after 48 hrs by SRB assay; conditions: UO-31, 48 h

COc1ccc(-c2nc3ccccn3c2/C=C/C(=O)c2cc(OC)c(OC)c(OC)c2)cc1OC
GI50 [1]: 3.71 µM
GI50 [2]: 2630 nM
GI50 [3]: 2760 nM
GI50 [4]: 3.28 µM
GI50 [5]: 1850 nM
GI50 [6]: 890 nM
GI50 [7]: 3.01 µM
GI50 [8]: 2280 nM
GI50 [9]: 2260 nM
GI50 [10]: 2360 nM
GI50 [11]: 4.48 µM
GI50 [12]: 1780 nM
GI50 [13]: 2370 nM
GI50 [14]: 3.3 µM
GI50 [15]: 1500 nM
GI50 [16]: 4.86 µM
GI50 [17]: 3.24 µM
GI50 [18]: 1540 nM
GI50 [19]: 2530 nM
GI50 [20]: 2990 nM
GI50 [21]: 2180 nM
GI50 [22]: 1900 nM
GI50 [23]: 390 nM
GI50 [24]: 3.86 µM
GI50 [25]: 1710 nM
GI50 [26]: 4.42 µM
GI50 [27]: 6.1 µM
GI50 [28]: 3.78 µM
GI50 [29]: 2080 nM
GI50 [30]: 2990 nM
GI50 [31]: 2740 nM
GI50 [32]: 3.92 µM
GI50 [33]: 3.8 µM
GI50 [34]: 2620 nM
GI50 [35]: 3.73 µM
GI50 [36]: 3.2 µM
GI50 [37]: 2520 nM
GI50 [38]: 2780 nM
GI50 [39]: 3.58 µM
GI50 [40]: 1850 nM
GI50 [41]: 2710 nM
GI50 [42]: 4.91 µM
GI50 [43]: 3.92 µM
GI50 [44]: 2910 nM
GI50 [45]: 3.03 µM
GI50 [46]: 2470 nM
GI50 [47]: 2430 nM
GI50 [48]: 7.38 µM
GI50 [49]: 2830 nM
GI50 [50]: 2180 nM
GI50 [51]: 4.92 µM
GI50 [52]: 3.74 µM
GI50 [53]: 2930 nM
GI50 [54]: 3.22 µM
GI50 [55]: 1390 nM
GI50 [56]: 4.1 µM
GI50 [57]: 3.28 µM
GI50 [58]: 550 nM
